Data reported in ChEMBL document CHEMBL3885861, “Open TG-GATES”.

Species: Rattus norvegicus
Assay: Open TG-GATES - Regimen: Daily Repeat
Assay type: toxicity, organism-based, Sprague-Dawley
Set-up: regimen Daily Repeat, gender Male, age 6 weeks
Conditions: in vivo, po, route gavage; for Bas / Eos / Fbg / Hb / Ht / Lym / MCH / MCHC / MCV / Mono / Neu / PT / Plat / RBC / Ret / WBC / APTT: tissue Blood; for KIDNEY_L / KIDNEY_R / KIDNEY_TOTAL: tissue Kidney; for LIVER: tissue Liver; for ALP / AST / BUN / CRE / Ca / Cl / DBIL / GLC / IP / LDH / Na / PL / RALB / TBIL / TC / TG / TP / gamma-GTP: tissue Plasma
[1] = 30 mg/kg, 72 h, dose level Middle, time 3 day
[2] = 30 mg/kg, […], dose level Middle, time 7 day
[3] = 30 mg/kg, […], dose level Middle, time 14 day
[4] = 30 mg/kg, […], dose level Middle, time 28 day
[5] = 100 mg/kg, 72 h, dose level High, time 3 day
[6] = 100 mg/kg, […], dose level High, time 7 day
[7] = 100 mg/kg, […], dose level High, time 14 day
[8] = 100 mg/kg, […], dose level High, time 28 day

Question: Which results are given for `CC(=O)N1CCN(c2ccc(OCC3COC(Cn4ccnc4)(c4ccc(Cl)cc4Cl)O3)cc2)CC1` (configuration not stated) [KETOCONAZOLE]?
Answer: Bas [1]: 0%; Eos [1]: 1%; Fbg [1]: 303.8 mg/dL; Hb [1]: 13.4 g/dL; Ht [1]: 39.7%; Lym [1]: 77.4%; MCH [1]: 21.4 pg; MCHC [1]: 33.8%; MCV [1]: 63.3 fL; Mono [1]: 2.4%; Neu [1]: 18.2%; PT [1]: 16.3 s; Plat [1]: 117.1 x10_4/uL; RBC [1]: 627.6 x10_4/ul; Ret [1]: 5.6%; WBC [1]: 101.1 x10_2/uL; KIDNEY_L [1]: 1 g; KIDNEY_R [1]: 1.1 g; KIDNEY_TOTAL [1]: 2.1 g; LIVER [1]: 10.5 g; ALP [1]: 1639 IU/L; AST [1]: 67.4 IU/L; BUN [1]: 17.8 mg/dL; CRE [1]: 0.1 mg/dL; Ca [1]: 10.8 mg/dL; Cl [1]: 106.4 meq/L; DBIL [1]: 0 mg/dL; GLC [1]: 181.8 mg/dL; IP [1]: 6.7 mg/dL; LDH [1]: 236.6 IU/L; Na [1]: 139.8 meq/L; PL [1]: 141.8 mg/dL; RALB [1]: 3.1 g/dL; TBIL [1]: 0.01 mg/dL; TC [1]: 71 mg/dL; TG [1]: 88.6 mg/dL; TP [1]: 5.7 g/dL; gamma-GTP [1]: 1.2 IU/L; TERMINAL_BW [2]: 265.9 g; TERMINAL_BW [3]: 312.9 g; TERMINAL_BW [4]: 360.4 g; APTT [2]: 21.8 s; Bas [2]: 0%; Eos [2]: 1%; Fbg [2]: 321.6 mg/dL; Hb [2]: 13.5 g/dL; Ht [2]: 39.7%; Lym [2]: 75.8%; MCH [2]: 21.2 pg; MCHC [2]: 34%; MCV [2]: 62.4 fL; Mono [2]: 2.4%; PT [2]: 16 s; Plat [2]: 121.4 x10_4/uL; RBC [2]: 636.6 x10_4/ul; Ret [2]: 5.4%; WBC [2]: 103.7 x10_2/uL; APTT [3]: 21.1 s; Bas [3]: 0%; Eos [3]: 0.8%; Fbg [3]: 291.8 mg/dL; Hb [3]: 13.4 g/dL; Ht [3]: 39.6%; Lym [3]: 76%; MCH [3]: 20.5 pg; MCHC [3]: 33.8%; MCV [3]: 60.7 fL; Mono [3]: 2.4%; Neu [3]: 19.2%; PT [3]: 16.2 s; Plat [3]: 126.1 x10_4/uL; RBC [3]: 652.8 x10_4/ul; Ret [3]: 4.9%; WBC [3]: 115.1 x10_2/uL; APTT [4]: 25 s; Bas [4]: 0%; Eos [4]: 1%; Fbg [4]: 286.6 mg/dL; Hb [4]: 15.2 g/dL; Ht [4]: 43.9%; Lym [4]: 76.8%; MCH [4]: 19.6 pg; MCHC [4]: 34.5%; MCV [4]: 56.9 fL; Mono [4]: 1.6%; PT [4]: 16.9 s; Plat [4]: 105.3 x10_4/uL; RBC [4]: 773.4 x10_4/ul; Ret [4]: 2.6%; WBC [4]: 102.4 x10_2/uL; KIDNEY_L [2]: 1.2 g; KIDNEY_R [2]: 1.2 g; KIDNEY_TOTAL [2]: 2.3 g; KIDNEY_L [3]: 1.3 g; KIDNEY_R [3]: 1.3 g; KIDNEY_TOTAL [3]: 2.6 g; KIDNEY_L [4]: 1.3 g; KIDNEY_R [4]: 1.4 g; KIDNEY_TOTAL [4]: 2.7 g; LIVER [2]: 12.2 g; LIVER [3]: 14.4 g; LIVER [4]: 15.1 g; ALP [2]: 1565.4 IU/L; AST [2]: 70.4 IU/L; BUN [2]: 18.2 mg/dL; CRE [2]: 0.1 mg/dL; Ca [2]: 10.6 mg/dL; Cl [2]: 108.2 meq/L; DBIL [2]: 0 mg/dL; GLC [2]: 176.4 mg/dL; IP [2]: 6.9 mg/dL; LDH [2]: 171.8 IU/L; Na [2]: 142 meq/L; PL [2]: 145 mg/dL; RALB [2]: 3 g/dL; TBIL [2]: 0.004 mg/dL; TC [2]: 70.4 mg/dL; TG [2]: 135.4 mg/dL; TP [2]: 5.7 g/dL; gamma-GTP [2]: 1.6 IU/L; ALP [3]: 1247.8 IU/L; AST [3]: 65.4 IU/L; BUN [3]: 18.2 mg/dL; CRE [3]: 0.1 mg/dL; Ca [3]: 10.4 mg/dL; Cl [3]: 106.8 meq/L; DBIL [3]: 0 mg/dL; GLC [3]: 180.8 mg/dL; IP [3]: 6.6 mg/dL; LDH [3]: 194.8 IU/L; Na [3]: 142.2 meq/L; PL [3]: 140 mg/dL; RALB [3]: 3 g/dL; TBIL [3]: 0.004 mg/dL; TC [3]: 68.6 mg/dL; TG [3]: 134 mg/dL; TP [3]: 5.8 g/dL; gamma-GTP [3]: 1 IU/L; ALP [4]: 1104.2 IU/L; AST [4]: 66.8 IU/L; BUN [4]: 18.4 mg/dL; CRE [4]: 0.2 mg/dL; Ca [4]: 10.4 mg/dL; DBIL [4]: 0 mg/dL; GLC [4]: 179 mg/dL; IP [4]: 4.9 mg/dL; LDH [4]: 155.2 IU/L; Na [4]: 142.4 meq/L; PL [4]: 126 mg/dL; RALB [4]: 3.1 g/dL; TBIL [4]: 0.008 mg/dL; TC [4]: 61.6 mg/dL; TP [4]: 6.1 g/dL; gamma-GTP [4]: 1.2 IU/L; TERMINAL_BW [5]: 230.7 g; APTT [5]: 20.5 s; Bas [5]: 0%; Eos [5]: 0.8%; Fbg [5]: 321 mg/dL; Hb [5]: 13.3 g/dL; Ht [5]: 39.8%; MCH [5]: 20.9 pg; MCHC [5]: 33.5%; MCV [5]: 62.4 fL; Mono [5]: 2.8%; Neu [5]: 16.2%; PT [5]: 16.2 s; Plat [5]: 128.4 x10_4/uL; RBC [5]: 639 x10_4/ul; Ret [5]: 5.2%; WBC [5]: 83.5 x10_2/uL; KIDNEY_L [5]: 1.1 g; KIDNEY_R [5]: 1 g; KIDNEY_TOTAL [5]: 2.1 g; LIVER [5]: 12.1 g; ALP [5]: 1481 IU/L; AST [5]: 63.8 IU/L; BUN [5]: 19.2 mg/dL; CRE [5]: 0.2 mg/dL; Ca [5]: 10.8 mg/dL; Cl [5]: 105.6 meq/L; DBIL [5]: 0 mg/dL; GLC [5]: 179.6 mg/dL; IP [5]: 7 mg/dL; LDH [5]: 261.8 IU/L; Na [5]: 141 meq/L; PL [5]: 133.6 mg/dL; RALB [5]: 3 g/dL; TBIL [5]: 0.004 mg/dL; TC [5]: 72.4 mg/dL; TG [5]: 73.2 mg/dL; TP [5]: 5.8 g/dL; gamma-GTP [5]: 1.6 IU/L; TERMINAL_BW [6]: 256.9 g; TERMINAL_BW [7]: 298.5 g; TERMINAL_BW [8]: 353.3 g; APTT [6]: 20.6 s; Bas [6]: 0%; Eos [6]: 0.4%; Fbg [6]: 302.4 mg/dL; Hb [6]: 12.9 g/dL; Ht [6]: 38.5%; Lym [6]: 79.4%; MCH [6]: 21 pg; MCHC [6]: 33.6%; MCV [6]: 62.6 fL; Mono [6]: 1.2%; Neu [6]: 17.6%; PT [6]: 16.1 s; Plat [6]: 111.5 x10_4/uL; RBC [6]: 616.2 x10_4/ul; Ret [6]: 5.5%; WBC [6]: 106.4 x10_2/uL; APTT [7]: 20.9 s; Bas [7]: 0%; Eos [7]: 0.4%; Fbg [7]: 316 mg/dL; Hb [7]: 13.9 g/dL; Ht [7]: 41.6%; Lym [7]: 72.4%; MCH [7]: 20.3 pg; MCHC [7]: 33.5%; MCV [7]: 60.6 fL; Mono [7]: 1.4%; Neu [7]: 24.6%; PT [7]: 16.3 s; Plat [7]: 122.8 x10_4/uL; RBC [7]: 687.8 x10_4/ul; Ret [7]: 4.5%; WBC [7]: 85.7 x10_2/uL; APTT [8]: 23.2 s; Bas [8]: 0%; Eos [8]: 1.2%; Fbg [8]: 314.2 mg/dL; Hb [8]: 14.5 g/dL; Ht [8]: 42.3%; Lym [8]: 72%; MCH [8]: 19.1 pg; MCHC [8]: 34.2%; MCV [8]: 55.8 fL; Mono [8]: 1.8%; Neu [8]: 24%; PT [8]: 17.1 s; Plat [8]: 109.8 x10_4/uL; RBC [8]: 758.8 x10_4/ul; Ret [8]: 3%; WBC [8]: 86.3 x10_2/uL; KIDNEY_L [6]: 1.2 g; KIDNEY_R [6]: 1.2 g; KIDNEY_TOTAL [6]: 2.4 g; KIDNEY_L [7]: 1.3 g; KIDNEY_R [7]: 1.3 g; KIDNEY_TOTAL [7]: 2.6 g; KIDNEY_L [8]: 1.4 g; KIDNEY_R [8]: 1.4 g; KIDNEY_TOTAL [8]: 2.8 g; LIVER [7]: 15 g; LIVER [8]: 16.1 g; ALP [6]: 1138 IU/L; AST [6]: 64.8 IU/L; BUN [6]: 17.2 mg/dL; CRE [6]: 0.1 mg/dL; Ca [6]: 10.8 mg/dL; Cl [6]: 107.6 meq/L; DBIL [6]: 0 mg/dL; GLC [6]: 189.6 mg/dL; IP [6]: 7 mg/dL; LDH [6]: 203 IU/L; Na [6]: 143.6 meq/L; PL [6]: 119.6 mg/dL; RALB [6]: 2.9 g/dL; TBIL [6]: 0 mg/dL; TC [6]: 62.4 mg/dL; TG [6]: 73.8 mg/dL; TP [6]: 5.8 g/dL; gamma-GTP [6]: 1 IU/L; ALP [7]: 1375.6 IU/L; AST [7]: 67.8 IU/L; BUN [7]: 16.8 mg/dL; CRE [7]: 0.1 mg/dL; Ca [7]: 10.4 mg/dL; Cl [7]: 106 meq/L; DBIL [7]: 0 mg/dL; GLC [7]: 177.8 mg/dL; IP [7]: 6.3 mg/dL; LDH [7]: 194.4 IU/L; Na [7]: 143.8 meq/L; PL [7]: 138.2 mg/dL; RALB [7]: 3.1 g/dL; TBIL [7]: 0.004 mg/dL; TC [7]: 70.4 mg/dL; TG [7]: 114.8 mg/dL; TP [7]: 6 g/dL; gamma-GTP [7]: 1.2 IU/L; ALP [8]: 1014.6 IU/L; AST [8]: 65.8 IU/L; BUN [8]: 16.8 mg/dL; CRE [8]: 0.2 mg/dL; Ca [8]: 10.3 mg/dL; Cl [8]: 106.8 meq/L; DBIL [8]: 0 mg/dL; GLC [8]: 187.6 mg/dL; IP [8]: 5.9 mg/dL; LDH [8]: 154 IU/L; Na [8]: 142.2 meq/L; PL [8]: 111.8 mg/dL; RALB [8]: 3.2 g/dL; TBIL [8]: 0.016 mg/dL; TC [8]: 57 mg/dL; TG [8]: 56.4 mg/dL; TP [8]: 6.1 g/dL; gamma-GTP [8]: 1.6 IU/L
